In PubChem BioAssay (NCI):
“And” between values parts separate entries of the source, which are not always exact repeats. Equal entries are not always repeated.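 Following 48 hours of exposure in 96-well plates, responses at five concentrations were used to interpolate endpoints linearly. GI50 is the concentration that inhibits growth by half. TGI: total growth inhibition.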

Experiments:
Assay in all cases: inhibition of tumour cell growth, NCI panel, 48 h
T-47D breast = tested on: T-47D breast
XF 498 CNS = tested on: XF 498 CNS
DMS 273 small cell lung = tested on: DMS 273 small cell lung
BT-549 breast = tested on: BT-549 breast
M19-MEL melanoma = tested on: M19-MEL melanoma
KM20L2 colon = tested on: KM20L2 colon
HOP-18 NSCLC = tested on: HOP-18 NSCLC
LXFL 529 NSCLC = tested on: LXFL 529 NSCLC

Compound | GI50 (T-47D breast) | TGI (T-47D breast) | TGI (XF 498 CNS) | TGI (DMS 273 small cell lung) | TGI (BT-549 breast) | TGI (KM20L2 colon) | GI50 (BT-549 breast) | other results
CN(CO)c1nc(N(C)CO)nc(N(C)CO)n1 | 25000 nM | 67.7 µM and 211 µM | 12.8 µM | 25.8 µM | 43.1 µM and 36.9 µM | 25.2 µM | – | TGI (M19-MEL melanoma): 17.2 µM; TGI (HOP-18 NSCLC): > 55.6 µM
N#Cc1ccc(O)c(C2=NCC(c3ccc(-c4ccccc4)cc3)O2)c1 (stereo not given) | 565 nM | 24.1 µM | – | – | 16.1 µM | – | 1370 nM | –
C=C1C(=O)O[C@H]2[C@H]1CC/C(CNC(=O)C(C)c1ccc(CC(C)C)cc1)=C\CC[C@@]1(C)O[C@@H]21 (stereo not given in full) | 1780 nM | 4.79 µM | – | – | 4.45 µM | – | 1800 nM | –
CC[C@@]1(O)C(=O)OCc2c1cc1n(c2=O)Cc2cc3cccc(N)c3nc2-1 | – | – | 82.1 µM | 8.48 µM | – | > 100 µM | – | GI50 (XF 498 CNS): 27.3 µM; GI50 (DMS 273 small cell lung): 1780 nM; GI50 (LXFL 529 NSCLC): > 100 µM; TGI (LXFL 529 NSCLC): > 100 µM; GI50 (M19-MEL melanoma): 13.1 µM; TGI (M19-MEL melanoma): > 100 µM; GI50 (KM20L2 colon): 26.2 µM
COc1ccc2c(c1)C(=O)/C(=C/c1cccc(OCC(=O)c3ccc([N+](=O)[O-])cc3)c1)CO2 | 1650 nM | 4.54 µM | – | – | 4.85 µM | – | 1910 nM | –
CCC1=CCC(P(=O)(c2ccccc2)c2ccccc2)CC1C (stereo not given) | – | – | > 100 µM | > 100 µM | – | > 100 µM | – | TGI (LXFL 529 NSCLC): > 100 µM; TGI (M19-MEL melanoma): > 100 µM; TGI (HOP-18 NSCLC): > 100 µM
CC1(C)C2=CCCC(=O)[C@@]2(C)CC[C@@H]1O | – | – | > 100 µM | > 100 µM | – | > 100 µM | – | TGI (LXFL 529 NSCLC): > 100 µM; TGI (M19-MEL melanoma): > 100 µM; TGI (HOP-18 NSCLC): > 100 µM
N#Cc1ccc(C(=O)c2cnn(-c3ccc(F)cc3)c2N)cc1 | > 25000 nM | > 25 µM | – | – | > 25 µM | – | > 25000 nM | –
CSc1nc(SC)c2c(C)c(Br)[nH]c2n1 | – | > 100 µM | – | – | > 100 µM | – | – | –
Cn1c2ccccc2c2c(=O)n(CCCC(=O)NCCc3cnc[nH]3)c3c(-c4ccccc4)nnn3c21 | 10400 nM | 25.1 µM | – | – | – | – | – | –
O=C(CO)CC(=O)C(=O)Nc1cccc(C(F)(F)F)c1 | – | – | > 100 µM | > 100 µM | – | > 100 µM | – | TGI (LXFL 529 NSCLC): > 100 µM
Fc1ccc(-c2c(-c3ccncc3)[nH]c3cccnc23)cc1 | 13400 nM | > 25 µM | – | – | > 25 µM | – | > 25000 nM | –
CN1CCN(C(=O)[C@@]2(C)CC[C@]3(C)CC[C@]4(C)C(=CC[C@@H]5[C@@]6(C)CC[C@H](OC(=O)c7cccnc7)C(C)(C)[C@@H]6CC[C@]54C)[C@@H]3C2)CC1 | 3120 nM | 17 µM | – | – | 3.49 µM | – | 1700 nM | –
CN(CCCCCCCCNc1ccnc2ccccc12)Cc1ccc(-c2ccc(-c3ccc(C#N)cc3)s2)cc1 | 881 nM | 3.16 µM | – | – | 3.2 µM | – | 1440 nM | –
CCCCCCCCCCCCSC1=CC(=O)C=CC1=O | 893 nM | 3.58 µM | – | – | 4.57 µM | – | 1340 nM | –
